What all share (experiment): biochemical
Set-up in all cases: in vitro kinase inhibition assay

In one assay the target is T1, CDK5/p25 (Homo sapiens, UniProt Q00535).
T1 construct: with p25
Particulars: read-out: NU2058 % inhibition.

The next assay has as its target CDK9/cyclin T (Homo sapiens, UniProt P50750). Particulars: read-out: NU2058 % inhibition.
The target in another assay is DYRK1a (Homo sapiens, UniProt Q13627).

pIC50: −log10 of the molar value.

Sequence of CDK9/cyclin T (P50750 whole entry): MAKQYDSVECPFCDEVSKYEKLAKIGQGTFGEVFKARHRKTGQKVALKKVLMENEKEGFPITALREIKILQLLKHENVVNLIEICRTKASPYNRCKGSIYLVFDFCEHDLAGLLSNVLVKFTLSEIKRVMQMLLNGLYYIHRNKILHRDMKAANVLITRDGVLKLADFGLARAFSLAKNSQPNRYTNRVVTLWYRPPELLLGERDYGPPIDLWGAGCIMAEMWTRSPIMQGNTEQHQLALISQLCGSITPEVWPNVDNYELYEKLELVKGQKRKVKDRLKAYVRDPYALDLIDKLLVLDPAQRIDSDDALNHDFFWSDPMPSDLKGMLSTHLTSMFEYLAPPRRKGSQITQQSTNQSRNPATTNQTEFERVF
Sequence of CDK9/cyclin T (O60563 whole entry partner): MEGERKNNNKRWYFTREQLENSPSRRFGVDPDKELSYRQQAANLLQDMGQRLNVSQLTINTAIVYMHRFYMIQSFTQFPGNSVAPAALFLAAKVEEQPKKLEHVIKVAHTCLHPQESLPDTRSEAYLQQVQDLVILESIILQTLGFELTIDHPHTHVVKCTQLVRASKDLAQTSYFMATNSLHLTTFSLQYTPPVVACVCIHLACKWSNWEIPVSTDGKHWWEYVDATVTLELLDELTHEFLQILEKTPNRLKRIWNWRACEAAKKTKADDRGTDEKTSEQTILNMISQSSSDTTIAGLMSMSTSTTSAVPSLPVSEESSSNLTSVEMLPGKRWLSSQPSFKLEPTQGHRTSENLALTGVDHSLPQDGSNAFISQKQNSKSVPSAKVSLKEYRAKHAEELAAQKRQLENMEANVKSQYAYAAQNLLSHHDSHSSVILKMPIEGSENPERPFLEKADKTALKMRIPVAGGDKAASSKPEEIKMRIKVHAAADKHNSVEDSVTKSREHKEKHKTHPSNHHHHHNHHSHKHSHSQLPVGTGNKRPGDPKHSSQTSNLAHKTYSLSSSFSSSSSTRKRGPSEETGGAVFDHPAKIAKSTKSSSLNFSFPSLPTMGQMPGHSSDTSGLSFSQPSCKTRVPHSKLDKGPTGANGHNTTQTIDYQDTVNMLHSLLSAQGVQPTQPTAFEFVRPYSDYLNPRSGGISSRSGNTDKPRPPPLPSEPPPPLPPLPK
T1 sequence (Q00535 whole entry): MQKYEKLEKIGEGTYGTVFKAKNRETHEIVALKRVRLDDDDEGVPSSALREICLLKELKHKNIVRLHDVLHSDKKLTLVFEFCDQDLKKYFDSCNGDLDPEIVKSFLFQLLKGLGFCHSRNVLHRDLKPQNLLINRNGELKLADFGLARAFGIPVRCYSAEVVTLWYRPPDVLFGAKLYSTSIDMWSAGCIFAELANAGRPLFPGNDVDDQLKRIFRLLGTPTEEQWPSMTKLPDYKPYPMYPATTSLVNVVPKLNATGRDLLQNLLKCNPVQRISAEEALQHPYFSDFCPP
T1 sequence (Q15078 whole entry partner): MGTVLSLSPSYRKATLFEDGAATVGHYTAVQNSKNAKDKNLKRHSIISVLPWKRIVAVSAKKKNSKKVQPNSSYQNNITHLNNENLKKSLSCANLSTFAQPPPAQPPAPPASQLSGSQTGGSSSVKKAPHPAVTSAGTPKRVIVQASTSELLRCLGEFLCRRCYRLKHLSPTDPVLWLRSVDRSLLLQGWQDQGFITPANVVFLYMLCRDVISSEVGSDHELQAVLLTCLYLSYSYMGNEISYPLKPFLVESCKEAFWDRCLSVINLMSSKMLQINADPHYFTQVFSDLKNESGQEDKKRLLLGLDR

For orientation: inhibition means the share of the control response that was lost under treatment. `Nc1nc(OCC2CCCCC2)c2nc[nH]c2n1` [NU2058]: the figures for the inhibition at 100 µM on CDK5/p25 and at CDK9/cyclin T were 50% and 43%, respectively.
For orientation: pIC50 means the negative decadic logarithm of the IC50, by convention in mol/L. High values mean a small IC50, low ones a large IC50. At DYRK1a, `NS(=O)(=O)c1ccc(Nc2nc(OCC3CCCCC3)c3nc[nH]c3n2)cc1` [NU6102] gave a pIC50 of 6.02.

The values are drawn from article PMC2816653, “Pre-clinical evaluation of cyclin-dependent kinase 2 and 1 inhibition in anti-estrogen-sensitive and resistant breast cancer cells” (British Journal of Cancer, 2009).
